Assay results reported in paper PMC5004205, “Spiro[pyrrolidine-3, 3´-oxindole] as potent anti-breast cancer compounds: Their design, synthesis, biological evaluation and cellular target identification” (Scientific Reports, 2016).

How the values were obtained:
Type in all cases: cell-based
[1] = test system: MCF-7 breast cancer cells; assay: MTT colorimetric cell viability assay, MCF-7; settings: for CTRL-TST/CTRL*100 (inhibition) MCF-7: EC50 plate
Experimental: MCF-7 cells were maintained as monolayer in 25 cm^2 culture flasks (T-25) at 37 °C in DMEM medium (GIBCO, St. Louis, USA) supplemented with high glucose, L-glutamine, pyridoxine hydrochloride, 110 mg/L sodium pyruvate, 3.7 g/L NaHCO3 and antibiotics (Penicillin-10,000 units/mL, Streptomycin −10,000 μg/mL, GIBCO, USA). Growth medium (pH 7.4) was prepared by adding 5% heat inactivated FBS (Fetal Bovine Serum, GIBCO, USA) and stored at 4 °C. The medium was changed 10–18 hrs prior to experiment, and cells were confluent at the time of experimentation. Cells were dislodged from flasks by gentle trypsinization containing 0.25% Trypsin. MCF-7 cells were regularly sub-cultured thrice a week in a seeding density of 40,000–50,000 cells/cm^2area. Cell confluency = 70%
The MTT colorimetric viability assay was performed to evaluate the anticancer effect of compounds. 30,000 cells/100 μl of media were seeded per well and allowed to stretch and adhere overnight at 37 °C. Following day media was removed and 100 μl fresh media was added to the grown cells. […] There was one positive and one negative control along with 13 compounds. The results were measured all in triplicate in 45 wells of 96 well plate at each time point. Cytotoxic effect was evaluated using ability of live cells to cleave MTT ((3-[4, 5- dimethylthiazol-2-yl]-2, 5-diphenyl tetrazolium bromide)) (Sigma-Aldrich, St Louis, MO, USA), into formazan crystals. Post 48 hours of treatment, 10 μl of MTT (5 mg/ml in PBS) was added to the cells and incubated for 4 hours in dark at 37 °C. The violet colored crystals formed were then dissolved in 100 μl DMSO solvent (Dimethyl Sulfoxide, Sigma-Aldrich, St. Louis, MO, USA). The colorimetric assay was read by a MultiMode Plate Reader (Bio-Rad) at 595 nm. Percentage of Inhibition of drug was calculated by following formula:
O.D1 O.D2 O.D3 AVG CTRL-TST CTRL-TST/CTRL*100 stdev

COS-7 cells = assay: MTT colorimetric cell viability assay, COS-7
Experimental: The MTT colorimetric viability assay was performed to evaluate the anticancer effect of compounds. 30,000 cells/100 μl of media were seeded per well and allowed to stretch and adhere overnight at 37 °C. Following day media was removed and 100 μl fresh media was added to the grown cells. Adhered cells were then treated with the compounds 5a-m dissolved in DMSO in triplicates at a standard concentration of 50 μM for 48 hours. There was one positive and one negative control along with 13 compounds. The results were measured all in triplicate in 45 wells of 96 well plate at each time point. Cytotoxic effect was evaluated using ability of live cells to cleave MTT ((3-[4, 5- dimethylthiazol-2-yl]-2, 5-diphenyl tetrazolium bromide)) (Sigma-Aldrich, St Louis, MO, USA), into formazan crystals. Post 48 hours of treatment, 10 μl of MTT (5 mg/ml in PBS) was added to the cells and incubated for 4 hours in dark at 37 °C. The violet colored crystals formed were then dissolved in 100 μl DMSO solvent (Dimethyl Sulfoxide, Sigma-Aldrich, St. Louis, MO, USA). The colorimetric assay was read by a MultiMode Plate Reader (Bio-Rad) at 595 nm. Percentage of Inhibition of drug was calculated by following formula: […]

MCF-7 cells [2] = assay: Cell migration (scratch) assay; settings: 24 hours, compared to untreated cells
Experimental: MCF-7 cells were grown to confluence in six-well tissue culture plastic dishes to a density of ∼0.2 million cells/well. After 24 hrs of seeding, cells were treated with chemical compounds. The medium was removed and the cells were scratched by 200 μL pipette micro tip through the center of the plate. The cultures were washed to remove debris and re-cultured with DMEM containing 10% FBS for cell migration. The cells were imaged at 24 hrs and the migrated distance was measured. Migration rate was calculated by counting five to seven fields per image and the results presented as the average of three independent experiments performed over multiple days.

MCF-7 cells [3] = assay: Annexin V/propidium iodide FACS assay
Experimental: The assay is based on the ability of the protein annexin V to bind to phosphatidylserine (PS) exposed on the outer membrane leaflet in apoptotic cells (PS also appears on the necrotic cell surface). The annexin V assay was performed following the manufacturer’s instructions (Annexin V-FITC kit,Alexa Fluor). Briefly, the cells were washed with PBS and suspended in pre-diluted binding buffer. The cell density was adjusted to 2 million and 195 μl of cell suspension were mixed with 5 μl Annexin V-FITC and incubated for 10 min in the dark at room temperature. The cells were washed with binding buffer, re-suspended in 195 μl binding buffer, counterstained with 10 μl of the 20 μg/ml propidium iodide stock (final concentration 1 μg/ml) and the data were acquired by BD FACS diva 7.0 at 6 h, 12 h and 24 h.

Which results are given for `O=C1Nc2ccccc2C12CCNC2c1ccccc1` (centres unmarked) [Compound 5l]?
CTRL-TST/CTRL*100 (inhibition) MCF-7 ([1]; concentration row 10): 24.36; CTRL-TST/CTRL*100 (inhibition) MCF-7 ([1]; concentration row 20): 33.4492; CTRL-TST/CTRL*100 (inhibition) MCF-7 ([1]; concentration row 30): 48.26; CTRL-TST/CTRL*100 (inhibition) MCF-7 ([1]; concentration row 40): 62.51; CTRL-TST/CTRL*100 (inhibition) MCF-7 ([1]; concentration row 50): 66.98; EC50 ([1]; Homo sapiens, MCF7, MTT, mean of three experiments): 3.5 µM; inhibition at 50 µM ([1]; Homo sapiens, MCF7, 50 μM, 48 hours, MTT, triplicates, read-out: Percentage inhibition MCF-7): 60.96 ± 0.09%; Inhibition of proliferation of healthy COS-7 cells (COS-7 cells): did not inhibit the proliferation; inhibition at 50 µM (COS-7 cells; Chlorocebus aethiops, COS-7, 50 μM, MTT, triplicates, read-out: Percentage inhibition COS-7): 15.4 ± 0.18%; Inhibition of cell migration of MCF-7 cells (MCF-7 cells [2]): inhibit cell migration; Mode of cell death by Annexin-PI FACS (MCF-7 cells [3]): necrosis was also confirmed
